Measurements as given in ChEMBL document CHEMBL2440025, “Bacterial neuraminidase inhibitory effects of prenylated isoflavones from roots of Flemingia philippinensis” (Bioorg Med Chem, 2013).

Columns and labels:
[1] = target: T1, Sialidase (Clostridium perfringens) (UniProt P10481); experiment: (§1) Inhibition of Clostridium perfringens neuraminidase using 4-methylumbelliferyl-alpha-D-N-acetylneuraminic acid sodium salt hydrate as substrate by fluorimetry
T1 sequence (whole entry): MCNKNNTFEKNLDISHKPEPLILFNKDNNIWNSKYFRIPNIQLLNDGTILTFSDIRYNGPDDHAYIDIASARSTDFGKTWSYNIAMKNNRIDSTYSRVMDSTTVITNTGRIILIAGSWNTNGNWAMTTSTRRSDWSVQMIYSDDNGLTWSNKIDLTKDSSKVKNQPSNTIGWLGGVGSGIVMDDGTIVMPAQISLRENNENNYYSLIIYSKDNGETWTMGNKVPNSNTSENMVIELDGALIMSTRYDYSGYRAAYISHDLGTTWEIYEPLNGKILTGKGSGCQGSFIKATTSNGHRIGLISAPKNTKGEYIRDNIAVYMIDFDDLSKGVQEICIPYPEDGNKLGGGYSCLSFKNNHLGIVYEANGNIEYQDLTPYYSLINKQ

[2] = target: T2, Sialidase (Clostridium perfringens, UniProt P10481); experiment: as §1
T2 sequence (P10481 whole entry): T1 sequence (whole entry)

[3] = target: T2, Sialidase; experiment: Non-competitive inhibition of Clostridium perfringens neuraminidase using 4-methylumbelliferyl-alpha-D-N-acetylneuraminic acid sodium salt hydrate as substrate by Dixon plot method

| SMILES | inhibition [1] | IC50 [2] | Ki [3] |
| --- | --- | --- | --- |
| C=CC(C)(C)C1=Cc2c(c(CC=C(C)C)c3occ(-c4ccc(O)cc4)c(=O)c3c2O)OC1(C)C | Dose-dependent effect | 7.9 µM | 7.27 µM |
| COc1cc(-c2coc3c(CC=C(C)C)c(O)c(CC=C(C)C)c(O)c3c2=O)ccc1O [FLEMINGSIN] | Dose-dependent effect | 3.75 µM | 3.68 µM |
| CC(C)=CCc1c(O)c(CC=C(C)C)c2occ(-c3ccc(O)c(O)c3)c(=O)c2c1O | Dose-dependent effect | 1.07 µM | 1.02 µM |
| O=c1c(-c2ccc(O)cc2)coc2cc(O)cc(O)c12 [GENISTEIN] | – | 12 µM | – |
| CC(C)=CCc1c2c(c3occ(-c4ccc(O)cc4)c(=O)c3c1O)C=CC(C)(C)O2 [OSAJIN] | Dose-dependent effect | 3.06 µM | 3.21 µM |
| CC(C)=CCc1c2c(c(O)c3c(=O)c(-c4ccc(O)c(O)c4)coc13)C=CC(C)(C)O2 [AURICULASIN] | Dose-dependent effect | 0.3 µM | 0.13 µM |
| CC(C)=CCc1c(O)c(CC=C(C)C)c2occ(-c3ccc(O)cc3)c(=O)c2c1O | Dose-dependent effect | 4.04 µM | 4.29 µM |
| C=CC(C)(C)C1=Cc2c(c(CC=C(C)C)c3occ(-c4ccc(O)c(O)c4)c(=O)c3c2O)OC1(C)C | Dose-dependent effect | 1.63 µM | 1.36 µM |
| CC(C)=CCc1cc(-c2coc3cc(O)cc(O)c3c2=O)c(CC=C(C)C)c(O)c1O | Dose-dependent effect | 7.85 µM | 7.86 µM |
| CC(C)=CCc1c(-c2coc3cc(O)cc(O)c3c2=O)cc2c(c1O)OC(C)(C)C=C2 | Dose-dependent effect | 56.8 µM | 53 µM |
